{"source": "ChEMBL document CHEMBL5370551", "about": "“Inside PD-1/PD-L1,2 with their inhibitors” (Eur J Med Chem, 2023)", "key": {"[1]": {"molecular_target": "T1, Programmed cell death protein 1/Programmed cell death 1 ligand 1 (Homo sapiens, UniProt Q15116+Q9NZQ7)", "T1 sequence (Q15116 whole entry, the tested form may be a part)": "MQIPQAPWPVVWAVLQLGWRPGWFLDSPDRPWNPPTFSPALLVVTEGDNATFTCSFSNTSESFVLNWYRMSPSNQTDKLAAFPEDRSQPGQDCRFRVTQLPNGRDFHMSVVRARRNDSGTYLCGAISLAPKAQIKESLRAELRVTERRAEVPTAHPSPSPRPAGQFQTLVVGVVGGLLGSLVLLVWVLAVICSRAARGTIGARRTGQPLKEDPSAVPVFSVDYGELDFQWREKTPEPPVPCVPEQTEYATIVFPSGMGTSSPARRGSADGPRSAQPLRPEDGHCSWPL", "T1 sequence (Q9NZQ7 whole entry, the tested form may be a part)": "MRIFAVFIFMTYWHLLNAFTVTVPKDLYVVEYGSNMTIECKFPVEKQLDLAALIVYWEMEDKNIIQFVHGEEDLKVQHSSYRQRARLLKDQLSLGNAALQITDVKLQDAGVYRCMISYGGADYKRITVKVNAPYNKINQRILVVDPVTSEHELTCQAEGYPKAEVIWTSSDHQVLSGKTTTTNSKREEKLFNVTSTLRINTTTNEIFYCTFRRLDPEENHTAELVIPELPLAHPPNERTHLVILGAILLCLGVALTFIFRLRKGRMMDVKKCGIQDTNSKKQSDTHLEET", "experiment": "Inhibition of Fc-fused recombinant human PD-I/His-tagged recombinant human PD-L1 interaction incubated overnight by HTRF assay", "type": "protein-complex assay"}, "[2]": {"molecular_target": "T1, Programmed cell death protein 1/Programmed cell death 1 ligand 1", "experiment": "Inhibition of biotinylated human PD-I /His-tagged PD-L1 (unknown origin) interaction incubated for 90 mins in dark condition by AlphaLISA assay", "type": "protein-complex assay"}, "[3]": {"molecular_target": "T1, Programmed cell death protein 1/Programmed cell death 1 ligand 1", "experiment": "Inhibition of PD-I/PD-L1 interaction (unknown origin)", "type": "protein-complex assay"}, "[4]": {"molecular_target": "T1, Programmed cell death protein 1/Programmed cell death 1 ligand 1", "experiment": "Inhibition of PD-1/PD-L1 interaction (unknown origin) at 25 uM by AlphaLISA assay relative to control", "type": "protein-complex assay"}, "[5]": {"molecular_target": "T1, Programmed cell death protein 1/Programmed cell death 1 ligand 1", "experiment": "Inhibition of PD-1/PD-L1 interaction (unknown origin) by HTRF assay", "type": "protein-complex assay"}, "[6]": {"molecular_target": "T1, Programmed cell death protein 1/Programmed cell death 1 ligand 1", "experiment": "Inhibition of PD-I/PD-L1 interaction (unknown origin) by ELISA", "type": "protein-complex assay"}, "B16-F10 [7]": {"tested_on": "B16-F10", "experiment": "Antitumor activity against mouse B16-F10 expressing human PD-L1 allografted in C57BL/6 mouse assessed as inhibition of tumor growth at 10 mg/kg, ip administered every 2 days for 24 days relative to control", "type": "functional", "conditions": "B16-F10, 48 h, time 2 day"}, "B16-F10 [8]": {"tested_on": "B16-F10", "experiment": "Antitumor activity against mouse B16-F10 expressing human PD-L1 allografted in C57BL/6 mouse assessed as inhibition of tumor growth at 10 mg/kg, ip administered every 3 days for 24 days relative to control", "type": "functional", "conditions": "B16-F10, 72 h, time 3 day"}, "[9]": {"molecular_target": "T1, Programmed cell death protein 1/Programmed cell death 1 ligand 1", "experiment": "Inhibition of biotinylated human PD-I/human PD-L1 interaction at 100 uM incubated for 2 hrs by ELISA relative to control", "type": "protein-complex assay"}, "[10]": {"experiment": "Oral bioavailability in mouse", "type": "ADME, organism-based", "conditions": "in vivo"}, "[11]": {"molecular_target": "Programmed cell death 1 ligand 1 (Homo sapiens) (UniProt Q9NZQ7)", "sequence (Q9NZQ7 whole entry, the tested form may be a part)": "as above", "experiment": "Induction of PD-L1 degradation in human NCI-H292 at 20 uM relative to control", "type": "cell-based"}, "NCI-H292": {"tested_on": "NCI-H292", "experiment": "Cytotoxicity against human NCI-H292 cells assessed as inhibition of cell growth", "type": "functional, cell-based"}, "[12]": {"molecular_target": "T1, Programmed cell death protein 1/Programmed cell death 1 ligand 1", "experiment": "Inhibition of PD-I/PD-L1 interaction (unknown origin) by HTRF assay", "type": "protein-complex assay"}, "[13]": {"experiment": "Cytotoxicity against human MDA-MB-231 cells assessed as reduction in cell growth by MTT assay", "type": "toxicity, cell-based"}, "[14]": {"molecular_target": "Programmed cell death 1 ligand 1 (Homo sapiens) (UniProt Q9NZQ7)", "experiment": "Inhibition of human recombinant extracellular domain PD-L1 in human DU-145 cells incubated for 1 hr relative to control", "type": "cell-based", "conditions": "concentration not given here"}, "PD1-PDL2 [15]": {"molecular_target": "T2, PD1-PDL2 (Homo sapiens, UniProt Q15116+Q9BQ51)", "T2 sequence (Q15116 whole entry)": "as the sequence (Q15116 whole entry, the tested form may be a part) above", "T2 sequence (Q9BQ51 whole entry)": "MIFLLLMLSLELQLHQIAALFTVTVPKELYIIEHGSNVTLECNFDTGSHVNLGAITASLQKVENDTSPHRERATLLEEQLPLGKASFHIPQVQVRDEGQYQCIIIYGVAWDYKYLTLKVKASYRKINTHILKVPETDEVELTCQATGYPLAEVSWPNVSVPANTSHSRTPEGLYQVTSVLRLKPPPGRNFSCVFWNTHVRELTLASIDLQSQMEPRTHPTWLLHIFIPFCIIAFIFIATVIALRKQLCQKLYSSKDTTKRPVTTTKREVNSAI", "experiment": "Inhibition of PD-I/PD-L2 interaction (unknown origin) expressed in HEK293 cells", "type": "cell-based"}, "PD1-PDL2 [16]": {"molecular_target": "T2, PD1-PDL2", "experiment": "Inhibition of PD-I/PD-L2 interaction (unknown origin) expressed in human […] cells", "type": "cell-based"}}, "note": "pEC50, pIC50: −log10 of the molar value. Residues, ends and D or L forms follow the SMILES beside them.", "data": [{"smiles": "Cc1c(NC(=O)c2ccc(CNCCO)cn2)cccc1-c1cccc(NC(=O)c2ccc(CNCCO)cn2)c1C", "values": [{"measurement": "pIC50", "setting": "[1]", "value": "[…]"}]}, {"smiles": "CO[C@H]1/C=C/O[C@@]2(C)Oc3c(C)c(O)c4c(c3C2=O)C2=NC3(CCN(CC(C)C)CC3)NC2=C(NC(=O)/C(C)=C\\C=C\\[C@H](C)[C@H](O)[C@@H](C)[C@@H](O)[C@@H](C)[C@H](OC(C)=O)[C@@H]1C)C4=O", "note": "[RIFABUTIN]", "values": [{"measurement": "pIC50", "setting": "[2]", "value": 4.60}]}, {"smiles": "Cc1c(COc2ccc(CN[C@H](CO)C(=O)O)c(OCc3cccc(C#N)c3)c2)cccc1-c1ccc2c(c1)OCCO2", "values": [{"measurement": "pIC50", "setting": "[3]", "value": 8.65}]}, {"smiles": "Cc1cc(/C=C/c2ccc3cc(N(C)C)ccc3[n+]2C)c(C)n1-c1ccccc1", "values": [{"measurement": "inhibition", "setting": "[4]", "value": 44.5, "unit": "%"}, {"measurement": "pIC50", "setting": "[5]", "value": 4.52}]}, {"smiles": "CSCC[C@H](NC(=O)[C@H](CC(=O)O)NC(=O)[C@H](Cc1ccccc1)NC(=O)[C@H](CCCNC(=N)N)NC(=O)[C@H](Cc1ccc(O)cc1)NC(=O)[C@H](CC(=O)O)NC(=O)[C@H](CCCNC(=N)N)NC(=O)[C@H](Cc1c[nH]c2ccccc12)NC(=O)[C@@H](NC(=O)[C@H](Cc1c[nH]c2ccccc12)NC(=O)[C@@H](N)CCCNC(=N)N)C(C)C)C(=O)NCC(=O)N[C@@H](Cc1ccccc1)C(=O)N[C@@H](CC(=O)O)C(=O)N[C@@H](Cc1c[nH]c2ccccc12)C(=O)N[C@H](C(=O)N[C@@H](Cc1c[nH]c2ccccc12)C(=O)N[C@@H](CCC(=O)O)C(=O)O)C(C)C", "note": "(H-RWVWRDYRFDMGFDWVWE-OH)", "values": [{"measurement": "pIC50", "setting": "[6]", "value": 6.22}]}, {"smiles": "NC(=O)c1ccccc1NC(=O)c1ccc(-c2ccccc2)cc1", "values": [{"measurement": "inhibition in vivo at 10 mg/kg", "setting": "B16-F10 [7]", "value": 62, "unit": "%"}, {"measurement": "inhibition in vivo at 10 mg/kg", "setting": "B16-F10 [8]", "value": 66, "unit": "%"}]}, {"smiles": "O=C(c1cc2ccccc2[nH]1)N1CCN(Cc2csc(-c3ccccc3)n2)CC1", "values": [{"measurement": "inhibition", "setting": "[9]", "value": 21, "unit": "%"}]}, {"smiles": "CC1=C(C(=O)OCc2ccccc2)C(CC(C)(C)C)C(C(=O)OCc2ccccc2)=C(C)N1", "values": [{"measurement": "bioavailability", "setting": "[10]", "value": 25, "unit": "%"}, {"measurement": "Activity", "setting": "[11]", "value": 67, "unit": "%"}, {"measurement": "pIC50", "setting": "NCI-H292", "value": 4.21}]}, {"smiles": "COc1nc(-c2cccc(-c3ccccc3F)c2C)ccc1CNCCC(N)=O", "values": [{"measurement": "pIC50", "setting": "[12]", "value": 9.05}, {"measurement": "pEC50", "setting": "[13]", "value": 4.95}]}, {"smiles": "CC(C)C[C@H](NC(=O)[C@H](CC(N)=O)NC(=O)[C@H](Cc1c[nH]c2ccccc12)NC(=O)[C@@H](NC(=O)[C@H](Cc1ccc(O)cc1)NC(=O)[C@H](Cc1ccc(O)cc1)NC(=O)[C@H](CO)NC(=O)[C@H](CCCNC(=N)N)NC(=O)[C@H](Cc1c[nH]cn1)NC(=O)[C@@H](N)Cc1c[nH]c2ccccc12)[C@@H](C)O)C(=O)N[C@@H](CC(N)=O)C(=O)N[C@H](C(=O)O)[C@@H](C)O", "note": "(H-WHRSYYTWNLNT-OH)", "values": [{"measurement": "inhibition", "setting": "[14]", "value": 80, "unit": "%"}]}, {"smiles": "CC[C@H](C)[C@H](NC(=O)[C@H](CCC(N)=O)NC(=O)[C@H](C)NC(=O)[C@H](CCCCN)NC(=O)[C@@H]1CCCN1C(=O)[C@H](C)NC(=O)[C@H](CC(C)C)NC(=O)[C@H](CCC(N)=O)NC(=O)[C@@H](NC(=O)[C@@H](NC(=O)[C@H](CCCNC(=N)N)NC(=O)[C@H](Cc1ccccc1)NC(=O)[C@H](CCCCNC(=O)[C@H](Cc1ccccc1)NC(=O)[C@H](CO)NC(=O)[C@H](CCC(=O)O)NC(=O)[C@H](CO)NC(=O)[C@@H](NC(=O)[C@H](CC(N)=O)NC(=O)[C@@H](N)CO)[C@@H](C)O)NC(=O)[C@H](Cc1ccccc1)NC(=O)[C@H](CO)NC(=O)[C@H](CCC(=O)O)NC(=O)[C@H](CO)NC(=O)[C@@H](NC(=O)[C@H](CC(N)=O)NC(=O)[C@@H](N)CO)[C@@H](C)O)C(C)C)[C@@H](C)O)C(=O)N[C@@H](CCCCN)C(=O)N[C@@H](CCC(=O)O)C(N)=O", "values": [{"measurement": "pEC50", "setting": "PD1-PDL2 [15]", "value": 9.14}, {"measurement": "pEC50", "setting": "PD1-PDL2 [16]", "value": 9.39}]}]}
